Experimental data: ChEMBL document CHEMBL3046923, “Heteroaromatic analogues of 1,5-diarylpyrazole class as anti-inflammatory agents” (2012)
Active and inactive are the calls of the source. The calls are words filed in the database; no cut-off is given here.

Columns and labels:
Type in all cases: functional
Rattus norvegicus [1] = experiment: Anti-inflammatory activity in Rattus norvegicus Wistar albino (rat) assessed as inhibition of carrageenan-induced paw edema at 50 mg/kg, po administered for 30 min prior to carrageenan challenge measured at 4 hr relative to control
Rattus norvegicus [2] = experiment: Anti-inflammatory activity in Rattus norvegicus Wistar albino (rat) assessed as inhibition of carrageenan-induced paw edema at 50 mg/kg, po administered for 30 min prior to carrageenan challenge measured at 3 hr relative to control
Rattus norvegicus [3] = experiment: Anti-inflammatory activity in Rattus norvegicus Wistar albino (rat) assessed as inhibition of carrageenan-induced paw edema at 50 mg/kg, po administered for 30 min prior to carrageenan challenge measured at 2 hr relative to control
Rattus norvegicus [4] = experiment: Anti-inflammatory activity in Rattus norvegicus Wistar albino (rat) assessed as inhibition of carrageenan-induced paw edema at 50 mg/kg, po administered for 30 min prior to carrageenan challenge measured at 1 hr relative to control
Rattus norvegicus [5] = experiment: Anti-inflammatory activity in Rattus norvegicus Wistar albino (rat) assessed as inhibition of carrageenan-induced paw edema at 10 mg/kg, ip administered for 30 min prior to carrageenan challenge measured at 4 hr relative to control; conditions: route intraperitoneal
Rattus norvegicus [6] = experiment: Anti-inflammatory activity in Rattus norvegicus Wistar albino (rat) assessed as inhibition of carrageenan-induced paw edema at 10 mg/kg, ip administered for 30 min prior to carrageenan challenge measured at 3 hr relative to control; conditions: route intraperitoneal
Rattus norvegicus [7] = experiment: Anti-inflammatory activity in Rattus norvegicus Wistar albino (rat) assessed as inhibition of carrageenan-induced paw edema at 10 mg/kg, ip administered for 30 min prior to carrageenan challenge measured at 2 hr relative to control; conditions: route intraperitoneal
Rattus norvegicus [8] = experiment: Anti-inflammatory activity in Rattus norvegicus Wistar albino (rat) assessed as inhibition of carrageenan-induced paw edema at 10 mg/kg, ip administered for 30 min prior to carrageenan challenge measured at 1 hr relative to control; conditions: route intraperitoneal

NS(=O)(=O)c1ccc2nc(-n3nc(C(F)(F)F)cc3-c3ccc(Cl)cc3)sc2c1
inhibition in vivo at 50 mg/kg (Rattus norvegicus [1]): 42%
inhibition in vivo at 50 mg/kg (Rattus norvegicus [2]): 61%
inhibition in vivo at 50 mg/kg (Rattus norvegicus [3]): 42%
inhibition in vivo at 50 mg/kg (Rattus norvegicus [4]): 44%

NS(=O)(=O)c1ccc2nc(-n3nc(C(F)(F)F)cc3-c3ccc(F)cc3)sc2c1
inhibition in vivo at 50 mg/kg (Rattus norvegicus [1]): 50%
inhibition in vivo at 50 mg/kg (Rattus norvegicus [2]): 64%
inhibition in vivo at 50 mg/kg (Rattus norvegicus [3]): 48%
inhibition in vivo at 50 mg/kg (Rattus norvegicus [4]): 54%

NS(=O)(=O)c1ccc2nc(-n3nc(C(F)(F)F)cc3-c3ccccc3)sc2c1
inhibition in vivo at 50 mg/kg (Rattus norvegicus [1]): 17%
inhibition in vivo at 50 mg/kg (Rattus norvegicus [2]): 54%
inhibition in vivo at 50 mg/kg (Rattus norvegicus [3]): 48%
inhibition in vivo at 50 mg/kg (Rattus norvegicus [4]): 32%

COc1ccc2c(c1)c(CC(=O)O)c(C)n2C(=O)c1ccc(Cl)cc1 [INDOMETHACIN]
inhibition in vivo at 10 mg/kg (Rattus norvegicus [5]): 75%
inhibition in vivo at 10 mg/kg (Rattus norvegicus [6]): 78%
inhibition in vivo at 10 mg/kg (Rattus norvegicus [7]): 78%
inhibition in vivo at 10 mg/kg (Rattus norvegicus [8]): 70%

NS(=O)(=O)c1ccc2nc(-n3nc(C(F)(F)F)cc3-c3ccc4ccccc4c3)sc2c1
inhibition in vivo at 50 mg/kg (Rattus norvegicus [1]): 20%
inhibition in vivo at 50 mg/kg (Rattus norvegicus [2]): 53%
inhibition in vivo at 50 mg/kg (Rattus norvegicus [3]): 27%
inhibition in vivo at 50 mg/kg (Rattus norvegicus [4]): 30%

NS(=O)(=O)c1ccc2nc(-n3nc(C(F)(F)F)cc3-c3ccco3)sc2c1
inhibition in vivo at 50 mg/kg (Rattus norvegicus [1]): 54%
inhibition in vivo at 50 mg/kg (Rattus norvegicus [2]): 61%
inhibition in vivo at 50 mg/kg (Rattus norvegicus [3]): 46%
inhibition in vivo at 50 mg/kg (Rattus norvegicus [4]): 27%

Cc1ccc(-c2cc(C(F)(F)F)n(-c3nc4ccc(S(N)(=O)=O)cc4s3)n2)cc1
inhibition (Rattus norvegicus [1]): inactive
inhibition (Rattus norvegicus [2]): inactive
inhibition (Rattus norvegicus [3]): inactive
inhibition (Rattus norvegicus [4]): inactive

COc1ccc(-c2cc(C(F)(F)F)nn2-c2nc3ccc(S(N)(=O)=O)cc3s2)cc1
inhibition in vivo at 50 mg/kg (Rattus norvegicus [1]): 53%
inhibition in vivo at 50 mg/kg (Rattus norvegicus [2]): 60%
inhibition in vivo at 50 mg/kg (Rattus norvegicus [3]): 31%
inhibition in vivo at 50 mg/kg (Rattus norvegicus [4]): 42%

Cc1ccc(-c2cc(C(F)(F)F)nn2-c2nc3ccc(S(N)(=O)=O)cc3s2)cc1
inhibition in vivo at 50 mg/kg (Rattus norvegicus [1]): 52%
inhibition in vivo at 50 mg/kg (Rattus norvegicus [2]): 56%
inhibition in vivo at 50 mg/kg (Rattus norvegicus [3]): 38%
inhibition in vivo at 50 mg/kg (Rattus norvegicus [4]): 35%

NS(=O)(=O)c1ccc2nc(-n3nc(C(F)(F)F)cc3-c3ccc(Br)cc3)sc2c1
inhibition in vivo at 50 mg/kg (Rattus norvegicus [1]): 43%
inhibition in vivo at 50 mg/kg (Rattus norvegicus [2]): 60%
inhibition in vivo at 50 mg/kg (Rattus norvegicus [3]): 56%
inhibition in vivo at 50 mg/kg (Rattus norvegicus [4]): 45%

NS(=O)(=O)c1ccc2nc(-n3nc(C(F)(F)F)cc3-c3cccs3)sc2c1
inhibition in vivo at 50 mg/kg (Rattus norvegicus [1]): 15%
inhibition in vivo at 50 mg/kg (Rattus norvegicus [2]): 49%
inhibition in vivo at 50 mg/kg (Rattus norvegicus [3]): 26%
inhibition in vivo at 50 mg/kg (Rattus norvegicus [4]): 5%
